The values that follow come from patent US7939535B2, “Benzo[D]isoxazol-3-yl-piperazin derivatives useful as modulators of dopamine D3 receptors” (Hoffman-La Roche Inc., priority 2008, dated 2011).

Each structure is given as a SMILES string.

T1 sequence (P35462 whole entry): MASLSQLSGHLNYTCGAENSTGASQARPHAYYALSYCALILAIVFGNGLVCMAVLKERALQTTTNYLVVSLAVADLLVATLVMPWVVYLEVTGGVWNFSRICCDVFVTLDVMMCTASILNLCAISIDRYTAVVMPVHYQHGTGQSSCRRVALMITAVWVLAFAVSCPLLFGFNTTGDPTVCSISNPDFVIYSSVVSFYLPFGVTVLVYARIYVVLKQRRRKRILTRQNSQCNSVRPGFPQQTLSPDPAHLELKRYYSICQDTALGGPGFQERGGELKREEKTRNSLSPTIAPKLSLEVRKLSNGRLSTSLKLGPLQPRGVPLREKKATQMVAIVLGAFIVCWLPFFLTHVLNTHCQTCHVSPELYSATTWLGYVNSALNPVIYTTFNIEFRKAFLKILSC

This assay has as its target T1, human D3 dopamine receptor (Homo sapiens, UniProt P35462).
T1 construct: expressed in transfected cells; host or cells: HEK-293 EBNA cells, transient transfection; membrane homogenate
Description: radioligand binding ([3H]-spiperone) to human D3 receptor membranes. The following applies: [3H]-spiperone displacement, membranes of HEK-293 EBNA cells transiently expressing human D3. How it is done: The ability of the compounds to bind to the D3 receptors was determined using radioligand binding to cloned receptors selectively expressed in HEK-293 EBNA cells.
HEK-293 EBNA cells were transiently transfected with expression plasmids encoding for the human D3 dopamine receptor. The cells were harvested 48 h post-transfection, washed three times with cold PBS and stored at −80° C. prior to use. The pellet was suspended in cold 50 mM Tris-HCl buffer containing 10 mM EDTA (pH 7.4) and homogenized with a Polytron (Kinematica AG, Basel, Switzerland) for 20-30 sec at 12.000 rpm. After centrifugation at 48.000×g for 30 mM at 4° C., the pellet was resuspended in cold 10 mM Tris-HCl buffer containing 0.1 mM EDTA (pH 7.4), homogenized, and centrifuged as above. This pellet was further resuspended in a smaller volume of ice cold 10 mM Tris-HCl buffer containing 0.1 mM EDTA (pH 7.4) and homogenized with a Polytron for 20-30 sec at 12.000 rpm. The protein content of this homogenate was determined with the Bio-Rad (radford) Protein Assay (Biorad Laboratories GmbH, München, Germany) according to the instructions of the manufacturer using gamma globulin as the standard. This homogenate was stored at −80° C. in aliquots and thawed immediately prior to use.
Aliquots of membrane preparations were thawed at RT, resuspended in assay buffer (50 mM Tris-HCl, 120 mM NaCl, 5 mM MgCl2, 1 mM E TA, 5 mM KCl, 1.5 mM CaCl2, pH=7.4), homogenized with a Polytron for 20-30 sec at 12.000 rpm and adjusted to a final concentration of approximately 7.5 μg protein/well.
The binding affinity (Ki) of the compounds was determined using radioligand binding. Membranes were incubated in a total volume of 200 with a fixed concentration of radioligand (final concentration approximately 0.5 nM [^3H]-spiperone) and ten concentrations of test compound in ranging between 10 μM-0.1 nM for 1 at RT. At the end of the incubation, the reaction mixtures were filtered on to unifilter 96-well white microplates with bonded GF/C filters (Packard BioScience, Zürich, Switzerland; preincubated for 1 h in 0.1% polyethylenimine (PEI) in assay buffer) with a Filtermate 196 harvester (Pack rd BioScience) and washed 3 times with cold assay buffer. The nonspecific binding was determined with equally composed reaction mixtures in the presence of 10 μM unlabelled spiperone. Per well 45 μl of Microscint 40 (Perkin Elmer, Schwerzenbach, Switzerland) was added, plate, for sealed, shaken for 20 mM and counted for 3 mM on a Topcount Microplate Scintillation Counter (Canberra Packard SA, Zürich, Switzerland) with quenching correction.
The CPM value for each duplicate of a concentration of competing compound was averaged (y1), then the % specific binding was calculated according to the equation (((y1−non-specific)/(total binding-non-specific))×100). Graphs were plotted with the % specific binding using XLfit, a curve fitting program that iteratively plots the data using Levenburg Marquardt algorithm. The single site competition analysis equation used was y=A+((B−A)/(1+((x/C)^D))), where y is the % specific binding, A is the minimum y, B is the maximum y, C is the IC50, x is the log10 of the concentration of the competing compound and D is the slope of the curve (the Hill Coefficient). From these curves the IC50 (inhibition concentration at which 50% specific binding of the radioligand was displaced) and Hill coefficient were determined. The affinity constant (Ki) was calculated using the Cheng-Prusoff equation Ki=(IC50/1+([L]/Kd), where [L] is the concentration of radioligand and Kd is the dissociation constant of the radioligand at the receptor as determined by the saturation isotherm.
As to `COCCC(=O)N[C@H]1CC[C@H](CCN2CCN(c3noc4ccc(F)c(F)c34)CC2)CC1` [Example 11, N-(trans-4-{2-[4-(4,5-Difluoro-benzo[d]isoxazol-3-yl)-piperazin-1-yl]-ethyl}-cyclohexyl)-3-methoxy-propionamide], the Ki turned out to be 9.71 nM. The figure for `CC(=O)N[C@H]1CC[C@H](CCN2CCN(c3noc4ccc(F)c(F)c34)CC2)CC1` [Example 10, N-(trans-4-{2-[4-(4,5-Difluoro-benzo[d]isoxazol-3-yl)-piperazin-1-yl]-ethyl}-cyclohexyl)-acetamide] is 8.57 nM; for `CO[C@H]1CC[C@H](CC(=O)N[C@H]2CC[C@H](CCN3CCN(c4noc5c(F)cc(F)cc45)CC3)CC2)CC1` [Example 5, N-(trans-4-{2-[4-(5,7-Difluoro-benzo[d]isoxazol-3-yl)-piperazin-1-yl]-ethyl}-cyclohexyl)-2-(trans-4-methoxy-cyclohexyl)-acetamide] it is 11.8 nM; for `COCCC(=O)N[C@H]1CC[C@H](CCN2CCN(c3noc4c(F)cc(F)cc34)CC2)CC1` [Example 4, N-(trans-4-{2-[4-(5,7-Difluoro-benzo[d]isoxazol-3-yl)-piperazin-1-yl]-ethyl}-cyclohexyl)-3-methoxy-propionamide] it is 3.66 nM. The figure for `O=C(CC1CC1)N[C@H]1CC[C@H](CCN2CCN(c3noc4c(F)cc(F)cc34)CC2)CC1` [Example 7, 2-Cyclopropyl-N-(trans-4-{2-[4-(5,7-difluoro-benzo[d]isoxazol-3-yl)-piperazin-1-yl]-ethyl}-cyclohexyl)-acetamide] is 2.72 nM; for `O=C(N[C@H]1CC[C@H](CCN2CCN(c3noc4c(F)cc(F)cc34)CC2)CC1)C1CCOCC1` [Example 8, Tetrahydro-pyran-4-carboxylic acid (trans-4-{2-[4-(5,7-difluoro-benzo[d]isoxazol-3-yl)-piperazin-1-yl]-ethyl}-cyclohexyl)-amide] it is 9.81 nM. For `CC(=O)N[C@H]1CC[C@H](CCN2CCN(c3noc4c(F)cc(F)cc34)CC2)CC1` [Example 1, N-(trans-4-{2-[4-(5,7-Difluoro-benzo[d]isoxazol-3-yl)-piperazin-1-yl]-ethyl}-cyclohexyl)-acetamide], the Ki was 3.7 nM. Take `COCC(=O)N[C@H]1CC[C@H](CCN2CCN(c3noc4c(F)cc(F)cc34)CC2)CC1` [Example 3, N-(trans-4-{2-[4-(5,7-Difluoro-benzo[d]isoxazol-3-yl)-piperazin-1-yl]-ethyl}-cyclohexyl)-2-methoxy-acetamide]: the Ki was determined as 15.6 nM. Next, `CCC(=O)N[C@H]1CC[C@H](CCN2CCN(c3noc4c(F)cc(F)cc34)CC2)CC1` [Example 6, N-(trans-4-{2-[4-(5,7-Difluoro-benzo[d]isoxazol-3-yl)-piperazin-1-yl]-ethyl}-cyclohexyl)-propionamide]: 4.53 nM; `O=C(CO)N[C@H]1CC[C@H](CCN2CCN(c3noc4c(F)cc(F)cc34)CC2)CC1` [Example 2, N-(trans-4-{2-[4-(5,7-Difluoro-benzo[d]isoxazol-3-yl)-piperazin-1-yl]-ethyl}-cyclohexyl)-2-hydroxy-acetamide]: 3.88 nM; `NC(=O)CC(=O)N[C@H]1CC[C@H](CCN2CCN(c3noc4c(F)cc(F)cc34)CC2)CC1` [Example 9, N-(trans-4-{2-[4-(5,7-Difluoro-benzo[d]isoxazol-3-yl)-piperazin-1-yl]-ethyl}-cyclohexyl)-malonamide]: 5.94 nM.
